ChEMBL document CHEMBL1156584, “Metal-free artificial nucleases based on simple oxime and hydroxylamine scaffolds” (Bioorg Med Chem Lett, 2008)

Assays:
[1] = system: Escherichia coli; assay: Inhibition of Escherichia coli DH5alpha pBSK-2 DNA cleavage in HEPES buffer at pH 8.0 after 8 hrs by agarose gel electrophoresis in presence of DMSO; set-up: concentration or dose not given beside the values
[2] = system: Escherichia coli; assay: Induction of Escherichia coli DH5alpha pBSK-2 DNA cleavage in HEPES buffer at pH 8.0 after 16 hrs by agarose gel electrophoresis
[3] = system: Escherichia coli; assay: Ratio of Kcat to Km for induction of Escherichia coli DH5alpha pBSK-2 DNA cleavage in HEPES buffer at pH 8.0 after 16 hrs by agarose gel electrophoresis
[4] = system: Escherichia coli; assay: Inhibition of Escherichia coli DH5alpha pBSK-2 DNA cleavage in HEPES buffer at pH 8.0 after 8 hrs by agarose gel electrophoresis in presence of distamycin; set-up: concentration or dose not given beside the values
[5] = system: Escherichia coli; assay: Ratio of Kcat to Km for induction of Escherichia coli DH5alpha pBSK-2 DNA cleavage in PIPES buffer at pH 7.0 after 16 hrs by agarose gel electrophoresis
[6] = system: Escherichia coli; assay: Induction of Escherichia coli DH5alpha pBSK-2 DNA cleavage in PIPES buffer at pH 7.0 after 16 hrs by agarose gel electrophoresis
[7] = system: Escherichia coli; assay: Inhibition of Escherichia coli DH5alpha pBSK-2 DNA cleavage in CHES buffer at pH 9.0 after 8 hrs by agarose gel electrophoresis in presence of glycerol; set-up: scale not given: the % may be the effect or the level left
[8] = system: Escherichia coli; assay: Ratio of Kcat to Km for induction of Escherichia coli DH5alpha pBSK-2 DNA cleavage in CHES buffer at pH 9.0 after 16 hrs by agarose gel electrophoresis
[9] = system: Escherichia coli; assay: Induction of Escherichia coli DH5alpha pBSK-2 DNA cleavage in CHES buffer at pH 9.0 after 16 hrs by agarose gel electrophoresis

| SMILES | Activity [1] | Km [2] | kcat [2] | kcat/Km [3] | Activity [4] | kcat/Km [5] | Km [6] | kcat [6] | Activity [7] | kcat/Km [8] | Km [9] | kcat [9] |
| --- | --- | --- | --- | --- | --- | --- | --- | --- | --- | --- | --- | --- |
| ON(Cc1ccccc1)Cc1ccccc1 | 14% | 110 µM | 157 ×10⁻³ /hr | 0.398 M⁻¹ s⁻¹ | 10% | – | – | – | – | – | – | – |
| CN(C)c1ccc(/C=N/O)cc1 | 8% | – | – | – | 2% | 0.28 M⁻¹ s⁻¹ | 140 µM | 141 ×10⁻³ /hr | – | – | – | – |
| CN(C)c1ccc(CNO)cc1 | 12% | 140 µM | 79 ×10⁻³ /hr | 0.158 M⁻¹ s⁻¹ | 14% | – | – | – | – | – | – | – |
| NOCc1ccccc1 | 73% | – | – | – | 61% | – | – | – | 71% | 1.68 M⁻¹ s⁻¹ | 70 µM | 424 ×10⁻³ /hr |
| ONCc1ccc2c(c1)OCO2 | 16% | 60 µM | 187 ×10⁻³ /hr | 0.869 M⁻¹ s⁻¹ | 20% | – | – | – | – | – | – | – |
